Assay results reported in ChEMBL document CHEMBL1149656, “Respiratory syncytial virus fusion inhibitors. Part 6: an examination of the effect of structural variation of the benzimidazol-2-one heterocycle moiety” (Bioorg Med Chem Lett, 2007).
pEC50: −log10 of the molar value.

Assays:
[1] = test system: Respiratory syncytial virus; test: Antiviral activity against RSV Long in Hep2 cells; format: functional, organism-based; settings: human respiratory syncytial virus, HEp-2
[2] = Cytotoxicity against human Hep2 cells; format: cell-based, HEp-2
[3] = test system: Respiratory syncytial virus; test: Antiviral activity against RSV Long with F1 protein K349R mutation in Hep2 cells; format: functional, organism-based; settings: hep-2
[4] = Metabolic stability in human liver microsomes; format: ADME, Microsome
[5] = test system: Respiratory syncytial virus; test: Reduction of viral RNA in lungs of RSV-infected BALB/c mouse at 50 mg/kg by RT-PCR method; format: functional, Lung

Structure (SMILES): CC(C)CCn1c(CN2C(=O)CSc3ccccc32)nc2ccccc21
- pEC50 [1]: 6.56
- CC50 [2]: 6780 nM

Structure (SMILES): CC(C)CCn1c(CN2C(=O)Cc3ccccc32)nc2ccccc21
- pEC50 [1]: 7.49
- CC50 [2]: 8580 nM

Structure (SMILES): CC(C)CCn1c(CN2C(=O)C(C)(O)c3ccccc32)nc2ccccc21 (centres undefined)
- pEC50 [1]: 7.01
- CC50 [2]: 101000 nM

Structure (SMILES): CC(C)CCn1c(CN2C(=O)CS(=O)(=O)c3ccccc32)nc2ccccc21
- pEC50 [1]: 7.23
- CC50 [2]: 63000 nM

Structure (SMILES): N#CCCCCn1c(CN2C(=O)CS(=O)(=O)c3ccccc32)nc2ccccc21
- pEC50 [1]: 5.87
- CC50 [2]: > 270000 nM

Structure (SMILES): O=C1CSc2ccccc2N1Cc1nc2ccccc2n1CCCCF
- pEC50 [1]: 5.99
- CC50 [2]: > 96400 nM

Structure (SMILES): CC1(C)C(=O)N(Cc2nc3ccccc3n2CCCC#N)c2ccccc21
- pEC50 [1]: 7.72
- CC50 [2]: > 100000 nM

Structure (SMILES): CC(C)CCn1c(CN2C(=O)C(CC(=O)O)c3ccccc32)nc2ccccc21 (centres undefined)
- pEC50 [1]: 6.15
- CC50 [2]: 16500 nM

Structure (SMILES): CC1(C)Sc2ccccc2N(Cc2nc3ccccc3n2CCCCF)C1=O
- pEC50 [1]: < 3.60
- CC50 [2]: 32600 nM

Structure (SMILES): CC(C)CCn1c(CN2C(=O)C(CC(=O)NCCc3ccccc3)c3ccccc32)nc2ccccc21 (centres undefined)
- pEC50 [1]: 6.42
- CC50 [2]: 940 nM

Structure (SMILES): O=c1ccc2ccccc2n1Cc1nc2ccccc2n1CCCCF
- pEC50 [1]: 5.64
- CC50 [2]: 103000 nM

Structure (SMILES): COc1cc(=O)n(Cc2nc3ccccc3n2CCCCF)c2ccccc12
- pEC50 [1]: 6.68
- CC50 [2]: 59500 nM

Structure (SMILES): COc1cc(=O)n(Cc2nc3cc(CN)ccc3n2CCCCF)c2ccccc12
- pEC50 [1]: 8.05
- CC50 [2]: 24000 nM
- pEC50 [3]: < 5.30

Structure (SMILES): CCOC(=O)c1c(OC)c(=O)n(Cc2nc3ccccc3n2CCCCF)c2ccccc12
- pEC50 [1]: 6.83
- CC50 [2]: 61600 nM

Structure (SMILES): O=C(O)c1c(O)c(=O)n(Cc2nc3ccccc3n2CCCCF)c2ccccc12
- pEC50 [1]: 4.59
- CC50 [2]: > 38600 nM

Structure (SMILES): O=c1c(Br)cc2ccccc2n1Cc1nc2ccccc2n1CCCCF
- pEC50 [1]: 6.10
- CC50 [2]: 26200 nM

Structure (SMILES): N#CCCCCn1c(CN2C(=O)CCc3ccccc32)nc2ccccc21
- pEC50 [1]: 5.96
- CC50 [2]: 27100 nM

Structure (SMILES): CN(C)CCn1c(CN2C(=O)CCc3ccccc32)nc2ccccc21
- pEC50 [1]: 6.34
- CC50 [2]: 153000 nM

Structure (SMILES): Cn1c(=O)c2ccccc2n(Cc2nc3ccccc3n2CCCCO)c1=O
- pEC50 [1]: 7.09
- CC50 [2]: 48600 nM

Structure (SMILES): CNCc1ccc2c(c1)nc(Cn1c(=O)n(C3CC3)c(=O)c3ccccc31)n2CCC(C)C
- pEC50 [1]: 6.10
- CC50 [2]: 17900 nM

Structure (SMILES): CCCCNCc1ccc2c(c1)nc(Cn1c(=O)n(C3CC3)c(=O)c3ccccc31)n2CCC(C)C
- pEC50 [1]: < 3.72
- CC50 [2]: 4150 nM

Structure (SMILES): COC(=O)c1ccc2c(c1)nc(Cn1c(=O)n(C3CC3)c(=O)c3ccccc31)n2CCC(C)C
- pEC50 [1]: < 3.66
- CC50 [2]: 230 nM

Structure (SMILES): CC(C)CCn1c(Cn2c(=O)n(C3CC3)c(=O)c3ccccc32)nc2cc(CO)ccc21
- pEC50 [1]: 6.50
- CC50 [2]: 62100 nM

Structure (SMILES): N#CCCCn1c(Cn2c(=O)n(C3CC3)c(=O)c3ccccc32)nc2ccccc21
- pEC50 [1]: 6.77
- CC50 [2]: 9050 nM
- pEC50 [3]: < 6.30

Structure (SMILES): CS(=O)(=O)CCCn1c(Cn2c(=O)n(CC(F)(F)F)c(=O)c3ccccc32)nc2cc(CN)ccc21
- pEC50 [1]: 7.68
- CC50 [2]: > 123000 nM
- pEC50 [3]: 6.30

Structure (SMILES): O=c1c2ccccc2n(Cc2nc3ccccc3n2CCCCF)c(=O)n1C1CC1
- pEC50 [1]: 7.30
- CC50 [2]: 38200 nM

Structure (SMILES): NCc1ccc2c(c1)nc(Cn1c(=O)n(CC(F)(F)F)c(=O)c3ccccc31)n2CCCCF
- pEC50 [1]: 8.10
- CC50 [2]: 11800 nM
- pEC50 [3]: < 6.30
- half-life [4]: > 1.67 h
- log10 TCID50 [5]: 1.6

Structure (SMILES): CCOC(=O)Cn1c(=O)c2ccccc2n(Cc2nc3ccccc3n2CCC(C)C)c1=O
- pEC50 [1]: 5.73
- CC50 [2]: 16600 nM

Structure (SMILES): CCOC(=O)Cn1c(=O)c2ccccc2n(Cc2nc3ccccc3n2CCn2cnnn2)c1=O
- pEC50 [1]: 6.54
- CC50 [2]: 8060 nM

Structure (SMILES): O=C(O)Cn1c(=O)c2ccccc2n(Cc2nc3ccccc3n2CCn2cnnn2)c1=O
- pEC50 [1]: 5.28
- CC50 [2]: 213000 nM

Structure (SMILES): O=C1N(Cc2nc3ccccc3n2CCCCF)c2ccccc2S(=O)(=O)N1C1CC1
- pEC50 [1]: 6.36
- CC50 [2]: 111000 nM

Structure (SMILES): CC(C)CCn1c(Cn2c(=O)n(Cc3ccc(C(=O)O)cc3)c(=O)c3ccccc32)nc2ccccc21
- pEC50 [1]: 8.05
- CC50 [2]: 19300 nM

Structure (SMILES): COC(=O)c1ccc(Cn2c(=O)c3ccccc3n(Cc3nc4ccccc4n3CCn3cnnn3)c2=O)cc1
- pEC50 [1]: 6.77
- CC50 [2]: 25300 nM

Structure (SMILES): CC(C)CCn1c(CN2C(=O)N(C3CC3)S(=O)(=O)c3ccccc32)nc2cc(CN)ccc21
- pEC50 [1]: 8.52
- CC50 [2]: 7030 nM
- pEC50 [3]: 7.70

Structure (SMILES): CC(C)CCn1c(CN2C(=O)N(CC(=O)OC(C)(C)C)S(=O)(=O)c3ccccc32)nc2ccccc21
- pEC50 [1]: 7.08
- CC50 [2]: 18400 nM

Structure (SMILES): CN1C(=O)N(Cc2nc3ccccc3n2CCCCO)c2ccccc2S1(=O)=O
- pEC50 [1]: 7.72
- CC50 [2]: 219000 nM

Structure (SMILES): N#CCCCn1c(Cn2c(=O)oc3ccccc32)nc2ccccc21
- pEC50 [1]: 5.60
- CC50 [2]: > 300000 nM

Structure (SMILES): O=c1c2ccccc2n(Cc2nc3ccccc3n2CCCCO)c(=O)n1C1CC1
- pEC50 [1]: 7.60
- CC50 [2]: 42600 nM

Structure (SMILES): O=C1CS(=O)(=O)c2ccccc2N1Cc1nc2ccccc2n1CCCCF
- pEC50 [1]: 6.64
- CC50 [2]: 211000 nM

Structure (SMILES): CC1(C)C(=O)N(Cc2nc3ccccc3n2CCCCF)c2ccccc2S1(=O)=O
- pEC50 [1]: 5.12
- CC50 [2]: 158000 nM

Structure (SMILES): NCc1ccc2c(c1)nc(Cn1c(=O)n(CC(F)(F)F)c(=O)c3ccccc31)n2CCCCO
- pEC50 [1]: 8.10
- CC50 [2]: 52700 nM
- pEC50 [3]: < 6.30

Structure (SMILES): CC(C)CCn1c(CN2C(=O)C(Cc3ccccc3)C(=O)c3ccccc32)nc2ccccc21 (centres undefined)
- pEC50 [1]: 5.74
- CC50 [2]: 20100 nM

Structure (SMILES): O=C(O)c1ccc(Cn2c(=O)c3ccccc3n(Cc3nc4ccccc4n3CCn3cnnn3)c2=O)cc1
- pEC50 [1]: 6.26
- CC50 [2]: 54700 nM

Structure (SMILES): CC(C)CCn1c(CN2C(=O)C(O)c3ccccc32)nc2ccccc21 (centres undefined)
- pEC50 [1]: 6.79
- CC50 [2]: 3310 nM

Structure (SMILES): CC(C)CCn1c(CN2C(=O)C(CC(=O)N(C)C)c3ccccc32)nc2ccccc21 (centres undefined)
- pEC50 [1]: 6.69
- CC50 [2]: 4670 nM

Structure (SMILES): CC(C)CCn1c(CN2C(=O)N(CC(=O)O)S(=O)(=O)c3ccccc32)nc2ccccc21
- pEC50 [1]: 6.58
- CC50 [2]: 60200 nM

Structure (SMILES): CC(C)CCn1c(Cn2c(=O)n(CC(=O)O)c(=O)c3ccccc32)nc2ccccc21
- pEC50 [1]: 5.99
- CC50 [2]: > 221000 nM

Structure (SMILES): CN1C(=O)N(Cc2nc3ccccc3n2CCCS(C)(=O)=O)c2ccccc2S1(=O)=O
- pEC50 [1]: 5.24
- CC50 [2]: 34500 nM

Structure (SMILES): CC(C)CCn1c(CN2C(=O)C(=O)c3ccccc32)nc2ccccc21
- pEC50 [1]: 6.64
- CC50 [2]: 69800 nM

Structure (SMILES): Cn1c(=O)c2ccccc2n(Cc2nc3ccccc3n2CCCCF)c1=O
- pEC50 [1]: 7.44
- CC50 [2]: > 25900 nM

Structure (SMILES): CC(C)CCn1c(Cn2c(=O)n(C3CC3)c(=O)c3ccccc32)nc2cc(CN)ccc21
- pEC50 [1]: 7.96
- CC50 [2]: 8580 nM

Structure (SMILES): CC(C)CCn1c(CN2C(=O)C(CC(=O)NCc3ccccc3)c3ccccc32)nc2ccccc21 (centres undefined)
- pEC50 [1]: 6.96
- CC50 [2]: 720 nM

Structure (SMILES): CC(C)CCn1c(Cn2c(=O)oc3ccccc32)nc2ccccc21
- pEC50 [1]: 7.36
- CC50 [2]: 30700 nM

Structure (SMILES): CC(C)CCn1c(Cn2c(=O)n(C3CC3)c(=O)c3ccccc32)nc2cc(C(=O)O)ccc21
- pEC50 [1]: < 4.16
- CC50 [2]: 102000 nM

Structure (SMILES): NCc1ccc2c(c1)nc(Cn1c(=O)n(C3CC3)c(=O)c3ccccc31)n2CCCCF
- pEC50 [1]: 8.05
- CC50 [2]: 40600 nM
- pEC50 [3]: < 6.30
- half-life [4]: > 1.67 h
- log10 TCID50 [5]: 1.4

Structure (SMILES): COc1cc(=O)n(Cc2nc3cc(CN)ccc3n2CCCCO)c2ccccc12
- pEC50 [1]: 8.10
- CC50 [2]: 81500 nM
- pEC50 [3]: < 6.30

Structure (SMILES): O=c1c(O)cc2ccccc2n1Cc1nc2ccccc2n1CCCCF
- pEC50 [1]: < 3.56
- CC50 [2]: 20200 nM

Structure (SMILES): COC(=O)c1ccc(Cn2c(=O)c3ccccc3n(Cc3nc4ccccc4n3CCC(C)C)c2=O)cc1
- pEC50 [1]: 6.59
- CC50 [2]: 11200 nM

Structure (SMILES): NCc1ccc2c(c1)nc(Cn1c(=O)n(C3CC3)c(=O)c3ccccc31)n2CCCCO
- pEC50 [1]: 7.74
- CC50 [2]: > 181000 nM
- pEC50 [3]: < 6.30
- half-life [4]: > 1.67 h
- log10 TCID50 [5]: 0.45

Structure (SMILES): N#CCCCn1c(CN2C(=O)N(C3CC3)S(=O)(=O)c3ccccc32)nc2ccccc21
- pEC50 [1]: 7.26
- CC50 [2]: > 244000 nM

Structure (SMILES): CCc1cc2ccccc2n(Cc2nc3ccccc3n2CCCCF)c1=O
- pEC50 [1]: 6.04
- CC50 [2]: 85100 nM

Structure (SMILES): CN1C(=O)N(Cc2nc3ccccc3n2CCCCF)c2ccccc2S1(=O)=O
- pEC50 [1]: 7.43
- CC50 [2]: 87700 nM
